Measurements: ChEMBL document CHEMBL5465560, “Selectivity Literature for EUbOPEN Chemogenomic Library” (2024)
Values belong to the compound of their own block, whether it stands above or below them.

Experiments:
[1] = target: T1, Serine/threonine-protein kinase RIO3 (Homo sapiens) (UniProt O14730); experiment: Selectivity interaction (KinomeScan (DiscoverX)) EUB0000607a RIOK3; conditions: at 10 µM
T1 sequence (whole entry): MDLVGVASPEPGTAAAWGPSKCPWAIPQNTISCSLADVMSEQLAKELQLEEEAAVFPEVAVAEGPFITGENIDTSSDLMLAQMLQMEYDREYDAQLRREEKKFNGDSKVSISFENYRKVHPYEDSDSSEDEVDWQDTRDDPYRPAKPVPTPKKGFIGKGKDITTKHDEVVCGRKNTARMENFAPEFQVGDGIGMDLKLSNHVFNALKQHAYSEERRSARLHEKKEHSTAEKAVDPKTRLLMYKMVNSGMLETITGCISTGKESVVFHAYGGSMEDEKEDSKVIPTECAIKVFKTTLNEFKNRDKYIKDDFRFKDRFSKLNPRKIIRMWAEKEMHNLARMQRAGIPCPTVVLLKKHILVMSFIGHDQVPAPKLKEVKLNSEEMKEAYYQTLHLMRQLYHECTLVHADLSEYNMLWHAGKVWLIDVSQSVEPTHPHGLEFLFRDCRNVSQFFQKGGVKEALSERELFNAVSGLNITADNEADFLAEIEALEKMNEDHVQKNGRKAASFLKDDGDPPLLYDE

[2] = target: Tyrosine-protein kinase CSK (Homo sapiens) (UniProt P41240); experiment: Selectivity interaction (Upstate Kinase Profiler service (Millipore)) EUB0000056c CSK; conditions: at 1 µM
[3] = target: Cyclin-dependent kinase 14 (Homo sapiens) (UniProt O94921); experiment: Selectivity interaction (ActivX KiNativ screen (kinase selectivity in THP-1 cell lysates)) EUB0000639a CDK14; assay type: subcellular; conditions: lysate, at 1 µM
[4] = target: Tyrosine-protein kinase Fes/Fps (Homo sapiens) (UniProt P07332); experiment: Selectivity interaction (Kinase panel (Invitrogen)) EUB0000639a FES; conditions: at 200 nM
[5] = target: Ribosomal protein S6 kinase alpha-4 (Homo sapiens) (UniProt O75676); experiment: Selectivity interaction (ActivX KiNativ screen (kinase selectivity in THP-1 cell lysates)) EUB0000639a RPS6KA4; assay type: subcellular; conditions: lysate
[6] = target: Cyclin-dependent kinase 3/Cyclin-C (Homo sapiens) (UniProt Q00526+P24863); experiment: (§1) Selectivity interaction (ProQinase) EUB0000171b CDK3; assay type: protein-complex assay
[7] = target: CDK3/Cyclin E (Homo sapiens) (UniProt P24864+Q00526); experiment: as §1; assay type: protein-complex assay
[8] = target: Serine/threonine-protein kinase PAK 6 (Homo sapiens) (UniProt Q9NQU5); experiment: Selectivity interaction (ProQinase) EUB0000171b PAK6; conditions: at 1 µM
[9] = target: T2, Dual specificity mitogen-activated protein kinase kinase 5 (Homo sapiens) (UniProt Q13163); experiment: Selectivity interaction (KinomeScan (DiscoverX)) EUB0000695a MAP2K5; conditions: at 100 nM
T2 sequence (whole entry): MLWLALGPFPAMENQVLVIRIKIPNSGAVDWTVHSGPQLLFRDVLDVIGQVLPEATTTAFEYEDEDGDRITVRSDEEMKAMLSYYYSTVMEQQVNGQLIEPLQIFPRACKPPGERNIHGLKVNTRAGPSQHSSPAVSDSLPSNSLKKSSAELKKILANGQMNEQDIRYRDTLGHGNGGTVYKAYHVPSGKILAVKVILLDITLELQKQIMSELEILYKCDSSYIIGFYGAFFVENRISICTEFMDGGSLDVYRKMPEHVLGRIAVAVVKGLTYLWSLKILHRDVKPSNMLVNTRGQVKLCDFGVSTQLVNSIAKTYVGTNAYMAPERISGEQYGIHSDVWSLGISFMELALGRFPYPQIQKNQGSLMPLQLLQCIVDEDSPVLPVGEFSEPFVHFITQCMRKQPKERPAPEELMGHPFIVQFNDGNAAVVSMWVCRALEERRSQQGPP

[10] = target: T3, Serine/threonine-protein kinase Nek2 (Homo sapiens) (UniProt P51955); conditions: at 10 µM
T3 sequence (whole entry): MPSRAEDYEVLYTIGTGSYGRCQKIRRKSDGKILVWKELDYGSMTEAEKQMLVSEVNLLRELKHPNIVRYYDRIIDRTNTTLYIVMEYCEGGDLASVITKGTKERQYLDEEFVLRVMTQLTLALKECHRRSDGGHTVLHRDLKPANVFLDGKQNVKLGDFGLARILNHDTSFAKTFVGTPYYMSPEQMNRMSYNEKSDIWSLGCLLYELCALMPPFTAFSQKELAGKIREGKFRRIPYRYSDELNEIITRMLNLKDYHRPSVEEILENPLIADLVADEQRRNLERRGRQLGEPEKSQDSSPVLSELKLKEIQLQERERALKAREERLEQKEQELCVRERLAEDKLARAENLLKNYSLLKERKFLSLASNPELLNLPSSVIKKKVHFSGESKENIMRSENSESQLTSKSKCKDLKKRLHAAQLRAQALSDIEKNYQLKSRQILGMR

[11] = target: CDK4/Cyclin D3 (Homo sapiens) (UniProt P11802+P30281); experiment: (§2) Selectivity interaction (KinomeScan (DiscoverX)) EUB0001049a CDK4; assay type: protein-complex assay; conditions: at 1 µM
[12] = target: Cyclin-dependent kinase 4/cyclin D1 (Homo sapiens) (UniProt P11802+P24385); experiment: as §2; assay type: protein-complex assay; conditions: at 1 µM
[13] = target: Casein kinase I isoform alpha (Homo sapiens, UniProt P48729); experiment: Selectivity interaction (Ambit KINOMEscan and KiNATiv profiling in Jurkat cells) EUB0000090b CSNK1A1; assay type: cell-based; conditions: at 1 µM
[14] = target: Cyclin-dependent kinase 18 (Homo sapiens) (UniProt Q07002); experiment: Selectivity interaction (KinomeScan (DiscoverX)) EUB0001079a CDK18; conditions: at 1 µM
[15] = target: Ribosomal protein S6 kinase alpha-3 (Homo sapiens, UniProt P51812); experiment: Selectivity interaction (KinomeScan (DiscoverX)) EUB0001079a RPS6KA3; conditions: at 1 µM
[16] = target: Serine/threonine-protein kinase 35 (Homo sapiens) (UniProt Q8TDR2); experiment: Selectivity interaction (KinomeScan (DiscoverX)) EUB0001079a STK35; conditions: at 1 µM
[17] = target: Mitogen-activated protein kinase kinase kinase kinase 4 (Homo sapiens, UniProt O95819); experiment: Selectivity interaction (Kinase panel (KiNativ target engagement assay in Jurkat cells)) EUB0001635a MAP4K4; assay type: cell-based; conditions: Selectivity number of off-targets 0.0, Selectivity number of targets 233.0, Source Knowledge https://www.sciencedirect.com/science/article/pii/S2451945619300674?via%3Dihub, at 1 µM
[18] = target: Serine/threonine-protein kinase VRK2 (Homo sapiens) (UniProt Q86Y07); experiment: Selectivity interaction (KinomeScan (DiscoverX)) EUB0000229b VRK2; conditions: at 10 µM
Aurora kinase B = Aurora kinase B (Homo sapiens, UniProt Q96GD4); experiment: Selectivity interaction (KinomeScan (DiscoverX)) EUB0000092b AURKB; conditions: at 10 µM
[19] = target: Dual specificity protein kinase CLK1 (Homo sapiens, UniProt P49759); conditions: at 10 µM
Sequence of Dual specificity protein kinase CLK1 (P49759 whole entry, looked up): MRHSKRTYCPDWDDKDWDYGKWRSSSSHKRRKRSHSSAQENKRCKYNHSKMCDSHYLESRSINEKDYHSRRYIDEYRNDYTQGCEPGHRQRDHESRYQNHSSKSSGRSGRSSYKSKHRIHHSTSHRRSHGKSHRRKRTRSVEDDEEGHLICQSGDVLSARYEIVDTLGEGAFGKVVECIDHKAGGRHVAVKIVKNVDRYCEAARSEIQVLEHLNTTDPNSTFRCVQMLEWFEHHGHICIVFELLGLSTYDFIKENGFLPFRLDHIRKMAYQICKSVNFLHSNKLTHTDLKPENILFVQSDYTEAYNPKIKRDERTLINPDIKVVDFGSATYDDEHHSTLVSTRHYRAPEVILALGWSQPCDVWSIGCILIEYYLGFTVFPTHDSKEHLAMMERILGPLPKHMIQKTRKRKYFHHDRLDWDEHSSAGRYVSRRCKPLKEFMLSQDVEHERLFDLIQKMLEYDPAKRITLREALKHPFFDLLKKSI

Sequence of Ribosomal protein S6 kinase alpha-4 (Homo sapiens) (O75676 whole entry, looked up): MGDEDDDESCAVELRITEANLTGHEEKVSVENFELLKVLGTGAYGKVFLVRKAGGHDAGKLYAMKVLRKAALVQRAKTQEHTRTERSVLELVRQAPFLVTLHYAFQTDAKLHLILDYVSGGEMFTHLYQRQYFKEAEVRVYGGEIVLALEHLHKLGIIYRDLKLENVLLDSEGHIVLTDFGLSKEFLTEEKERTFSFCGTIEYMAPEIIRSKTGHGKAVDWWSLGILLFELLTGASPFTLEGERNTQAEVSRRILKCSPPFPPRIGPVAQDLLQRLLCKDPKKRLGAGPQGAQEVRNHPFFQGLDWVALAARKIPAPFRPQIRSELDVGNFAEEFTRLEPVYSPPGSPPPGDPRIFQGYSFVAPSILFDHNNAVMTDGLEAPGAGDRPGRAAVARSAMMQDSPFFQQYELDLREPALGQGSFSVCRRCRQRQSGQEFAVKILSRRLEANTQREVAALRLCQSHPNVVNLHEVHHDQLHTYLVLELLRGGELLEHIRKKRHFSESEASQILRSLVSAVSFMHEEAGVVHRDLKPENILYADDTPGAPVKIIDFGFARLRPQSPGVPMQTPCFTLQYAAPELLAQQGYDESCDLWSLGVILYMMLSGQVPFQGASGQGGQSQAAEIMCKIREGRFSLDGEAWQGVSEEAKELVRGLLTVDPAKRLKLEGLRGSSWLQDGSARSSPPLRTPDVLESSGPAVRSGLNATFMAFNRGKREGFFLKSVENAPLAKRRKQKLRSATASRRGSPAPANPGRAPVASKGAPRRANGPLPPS
Sequence of Cyclin-dependent kinase 3/Cyclin-C (Homo sapiens) (P24863 whole entry, looked up): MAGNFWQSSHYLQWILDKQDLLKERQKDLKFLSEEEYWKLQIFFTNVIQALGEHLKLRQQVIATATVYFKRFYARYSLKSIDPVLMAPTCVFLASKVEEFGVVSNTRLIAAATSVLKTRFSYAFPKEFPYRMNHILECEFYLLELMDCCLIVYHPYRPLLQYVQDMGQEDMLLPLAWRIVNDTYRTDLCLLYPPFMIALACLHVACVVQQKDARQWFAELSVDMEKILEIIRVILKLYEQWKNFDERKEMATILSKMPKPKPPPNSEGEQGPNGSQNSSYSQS
Sequence of Cyclin-dependent kinase 3/Cyclin-C (Homo sapiens) (Q00526 whole entry, looked up): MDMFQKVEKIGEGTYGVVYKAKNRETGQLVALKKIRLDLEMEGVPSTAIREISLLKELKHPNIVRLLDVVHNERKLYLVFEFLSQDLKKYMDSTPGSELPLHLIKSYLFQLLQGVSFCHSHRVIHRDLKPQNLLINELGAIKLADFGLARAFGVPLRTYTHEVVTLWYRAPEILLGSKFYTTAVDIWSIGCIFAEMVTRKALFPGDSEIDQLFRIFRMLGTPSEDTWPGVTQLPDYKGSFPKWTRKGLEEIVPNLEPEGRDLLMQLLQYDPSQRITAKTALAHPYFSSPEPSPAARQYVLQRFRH
Sequence of CDK3/Cyclin E (Homo sapiens) (P24864 whole entry, looked up): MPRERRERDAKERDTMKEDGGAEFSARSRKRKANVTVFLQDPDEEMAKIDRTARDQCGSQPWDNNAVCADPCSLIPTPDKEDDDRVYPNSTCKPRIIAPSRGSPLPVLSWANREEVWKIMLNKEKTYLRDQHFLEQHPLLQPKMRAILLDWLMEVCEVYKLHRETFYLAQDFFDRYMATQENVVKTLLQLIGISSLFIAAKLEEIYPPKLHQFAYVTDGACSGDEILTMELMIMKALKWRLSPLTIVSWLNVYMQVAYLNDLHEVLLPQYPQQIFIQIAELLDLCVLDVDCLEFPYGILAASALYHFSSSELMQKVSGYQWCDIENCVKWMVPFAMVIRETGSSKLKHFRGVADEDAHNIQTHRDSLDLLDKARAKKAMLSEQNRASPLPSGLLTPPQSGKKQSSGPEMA
Sequence of CDK3/Cyclin E (Homo sapiens) (Q00526 whole entry, looked up): as the sequence (Q00526 whole entry, looked up) above
Sequence of Ribosomal protein S6 kinase alpha-3 (P51812 whole entry): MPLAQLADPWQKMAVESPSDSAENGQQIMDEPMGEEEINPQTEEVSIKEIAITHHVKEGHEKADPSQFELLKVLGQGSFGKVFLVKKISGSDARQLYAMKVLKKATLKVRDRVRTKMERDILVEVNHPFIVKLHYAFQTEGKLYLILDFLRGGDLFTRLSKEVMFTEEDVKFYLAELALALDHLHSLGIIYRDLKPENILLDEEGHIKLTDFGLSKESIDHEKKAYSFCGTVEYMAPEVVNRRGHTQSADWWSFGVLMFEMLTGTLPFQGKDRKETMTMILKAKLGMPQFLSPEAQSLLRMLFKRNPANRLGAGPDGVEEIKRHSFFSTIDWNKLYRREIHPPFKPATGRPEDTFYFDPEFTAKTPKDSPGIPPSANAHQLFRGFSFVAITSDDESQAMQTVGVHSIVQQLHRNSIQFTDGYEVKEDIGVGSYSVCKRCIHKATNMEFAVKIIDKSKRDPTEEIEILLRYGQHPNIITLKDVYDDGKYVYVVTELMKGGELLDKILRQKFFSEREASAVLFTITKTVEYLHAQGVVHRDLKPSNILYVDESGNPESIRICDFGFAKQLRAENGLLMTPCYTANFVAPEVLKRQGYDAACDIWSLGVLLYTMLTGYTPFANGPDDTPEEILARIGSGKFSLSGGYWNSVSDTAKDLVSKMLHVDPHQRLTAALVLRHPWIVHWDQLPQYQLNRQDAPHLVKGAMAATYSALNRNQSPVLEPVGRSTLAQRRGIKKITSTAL
Sequence of Casein kinase I isoform alpha (P48729 2-337 limits assumed): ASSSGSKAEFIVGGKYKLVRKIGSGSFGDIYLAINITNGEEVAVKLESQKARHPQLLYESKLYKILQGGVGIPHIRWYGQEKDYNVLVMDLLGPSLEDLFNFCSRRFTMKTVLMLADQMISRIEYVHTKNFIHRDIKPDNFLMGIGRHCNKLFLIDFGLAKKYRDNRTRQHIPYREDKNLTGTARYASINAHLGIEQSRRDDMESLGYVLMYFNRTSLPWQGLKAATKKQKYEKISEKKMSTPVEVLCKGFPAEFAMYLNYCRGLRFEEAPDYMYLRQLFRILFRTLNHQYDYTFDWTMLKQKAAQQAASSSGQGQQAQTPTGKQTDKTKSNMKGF
Sequence of Tyrosine-protein kinase CSK (Homo sapiens) (P41240 2-450 limits assumed): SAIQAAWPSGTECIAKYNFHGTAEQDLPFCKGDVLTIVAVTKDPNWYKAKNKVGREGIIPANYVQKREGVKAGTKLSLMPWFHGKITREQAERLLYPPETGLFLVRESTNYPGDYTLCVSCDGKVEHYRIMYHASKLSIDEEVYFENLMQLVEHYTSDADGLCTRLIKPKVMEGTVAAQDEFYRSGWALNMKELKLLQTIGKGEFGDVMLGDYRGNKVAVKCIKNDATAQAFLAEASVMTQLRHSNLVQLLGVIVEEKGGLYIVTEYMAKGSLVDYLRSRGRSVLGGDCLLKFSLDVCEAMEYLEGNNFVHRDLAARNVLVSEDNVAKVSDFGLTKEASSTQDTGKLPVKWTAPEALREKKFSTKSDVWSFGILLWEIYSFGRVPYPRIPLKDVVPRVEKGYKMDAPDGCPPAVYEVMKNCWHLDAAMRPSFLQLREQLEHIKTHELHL
Sequence of Serine/threonine-protein kinase PAK 6 (Homo sapiens) (Q9NQU5 whole entry, looked up): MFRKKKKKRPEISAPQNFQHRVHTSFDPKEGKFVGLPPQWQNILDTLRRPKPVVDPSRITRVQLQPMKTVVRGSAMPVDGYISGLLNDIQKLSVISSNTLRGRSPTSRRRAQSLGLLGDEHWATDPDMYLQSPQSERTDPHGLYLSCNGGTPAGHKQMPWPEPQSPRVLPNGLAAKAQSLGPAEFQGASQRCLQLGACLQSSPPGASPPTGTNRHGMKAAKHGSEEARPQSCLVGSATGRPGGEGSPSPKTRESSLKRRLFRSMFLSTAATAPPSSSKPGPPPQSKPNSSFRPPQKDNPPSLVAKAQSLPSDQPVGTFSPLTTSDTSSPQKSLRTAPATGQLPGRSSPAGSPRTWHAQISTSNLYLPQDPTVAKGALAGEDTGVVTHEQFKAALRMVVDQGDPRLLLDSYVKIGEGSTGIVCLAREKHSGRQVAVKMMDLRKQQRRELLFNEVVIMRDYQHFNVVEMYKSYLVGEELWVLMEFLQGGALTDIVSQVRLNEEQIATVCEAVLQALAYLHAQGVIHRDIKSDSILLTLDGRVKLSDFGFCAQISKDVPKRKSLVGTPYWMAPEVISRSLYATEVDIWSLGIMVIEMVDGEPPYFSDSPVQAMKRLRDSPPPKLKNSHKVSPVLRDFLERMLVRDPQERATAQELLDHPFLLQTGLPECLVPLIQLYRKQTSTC

Structure (SMILES): CNC(=O)Nc1ccc(-c2nc(N3CC4CCC(C3)O4)c3cnn(C4CCC5(CC4)OCCO5)c3n2)cc1
% of control [1]: 100%

% of inhibition [2]: 5%
Structure (SMILES): Cc1ccc(-c2ccc3c(ccc4sc5c(c43)NC[C@@H](C)NC5=O)n2)cn1

% of inhibition [3]: 1.6% | % of inhibition [4]: 1.51% | % of inhibition ([5]; at 0.01 µM): -4.6% | % of inhibition ([5]; at 0.04 µM): -2.6% | % of inhibition ([5]; at 0.2 µM): -18.1% | % of inhibition ([5]; at 1 µM): -20.7% | % of inhibition ([5]; at 5 µM): -27.3%
Structure (SMILES): CC[C@@H]1[C@H](F)C(=O)N[C@@H]1COc1nccc2cc(C(N)=O)c(OC)cc12 [ZIMLOVISERTIB]

% of control ([6]; at 1 µM): 91% | % of control ([6]; at 5 µM): 74% | % of control ([7]; at 1 µM): 98% | % of control ([7]; at 5 µM): 79% | % of control [8]: 90%
Structure (SMILES): C=CC(=O)Nc1cccc(C(=O)Nc2ccc(Nc3cc(-c4[nH]c(SC)nc4C)ccn3)cc2)c1

Structure (SMILES): Cc1cc(F)c(C(=O)Nc2cccc(-c3nncn3C(C)C)n2)cc1-n1cnc(C2CC2)c1
% of control [9]: 94%

Structure (SMILES): COCC(=O)NC/C=C/c1ccc2ncnc(Nc3ccc(Oc4ccc(C)nc4)c(C)c3)c2c1 [CP-724714]
% of control [10]: 100%

Structure (SMILES): COc1cc(Nc2nc(C)cc(-c3cnn4nc(OC)ccc34)n2)cc(C(F)(F)F)c1
% of control [11]: 98% | % of control [12]: 100%

Structure (SMILES): CN(C)C/C=C/C(=O)Nc1ccc(C(=O)N2CCCC(Nc3ncc(Cl)c(-c4c[nH]c5ccccc45)n3)C2)cc1 (stereo unspecified)
% of control [13]: 51%

Structure (SMILES): Nc1cnc(N2CCc3cc(S(=O)(=O)Nc4c(F)cc(Cl)cc4F)cc(N4CCCC4=O)c32)nc1 [TP-020n]
% of control [14]: 100% | % of control [15]: 100% | % of control [16]: 100%

Structure (SMILES): C=CC(=O)Nc1ccc(C(=O)Nc2[nH]nc3c2CN(C(=O)N[C@H](CN(C)C)c2ccccc2)C3(C)C)cc1
% of engagement [17]: -15.4%

Structure (SMILES): COc1cc(N(C)c2ccnc3ccc(C(F)(F)F)cc23)cc(OC)c1OC
% binding [18]: 85%

Structure (SMILES): CCC(=O)N1CCN(c2ccc(-n3c(=O)ccc4cnc5ccc(-c6cnc7ccccc7c6)cc5c43)cc2C(F)(F)F)CC1
% of control (Aurora kinase B): 82%

Structure (SMILES): Cc1cc([C@@H](C)Nc2ccccc2C(=O)O)c2nc(N3CCOCC3)cc(=O)n2c1 [AZD-6482]
% of control [19]: 74%
